Experiments:
IL-4 receptor signaling = test: IL-4 signaling inhibition in HEK-Blue IL-4/IL-13 cells; assay type: cell-based, human; details: HEK-Blue IL-4/IL-13 cells stimulated with 1.25 ng/mL IL-4, co-culture with varying concentrations for 24 hours
Method: HEK-Blue IL-4/IL-13 cells are used to evaluate IL-4/IL-4R-alpha binding. HEK-Blue IL-4/IL-13 have been engineered to produce secreted alkaline phosphatase (SEAP) when exposed to IL-4 or IL-13 and have been previously used to identify IL-4 and IL-4R inhibitors. Compounds are tested with these cells at various dosages to evaluate dose dependent changes in IL-4/IL-4R-alpha binding inhibition. Full EC50 curves are generated for Tier1 compounds.
In the experiment, engineered HEK-Blue™ IL-4/IL-13 cells were stimulated with a dose of 1.25 ng/mL of IL-4 and then subjected to co-culture with varying concentrations of the compounds for a period of 24 hours. […] The provided data represent the mean±standard deviation of six technical replicates carried out across two experimental replicates.

IL-13 = test: Functional Th2-blocking activity: IL-13 expression in primary human Th2 cells (intracellular flow cytometry); assay type: cell-based; details: for Expression of Cytokine following Stimulation (% X Positive among CD4+ T cells) IL-13: 3 days co-culture with compound, PMA/ionomycin stimulation 6 hours; for % Normalized Reduction of Cytokine Expression From Baseline in CD4+ T Cells IL-13: normalized against vehicle control (water), 3 days co-culture, PMA/ionomycin 6 hours
Excerpt: (§1) To produce T helper 2 (Th2) cells, peripheral blood mononuclear cells (PBMCs) were harvested from healthy donor leukopaks using Ficoll gradients. Naive CD4+ T cells were further isolated, then activated using TransAct or Dynabeads (depending on the donor). CD4+ T cells were activated for two days in the presence of low dose IL-2 (30 IU/mL) in X-VIVO-15 media containing 5% human AB serum (activation cycle). On the second day, the media was exchanged and supplemented with interleukin 4 (IL-4) (20 ng/mL), anti-IFN-gamma antibody (1 μg/mL), and interleukin 2 (IL-2) (rest cycle). The cells were cultured for an additional five days then evaluated for Prostaglandin D2 receptor 2 (DP2 or CRTH2) expression and IL-4 and interleukin 13 (IL-13) expression following phorbol myristate acetate (PMA)/ionomycin stimulation. If the expression of CRTH2 was >50%, the cells were frozen and used in Th2 IL-4/IL-13 bioactivity assays. If the expression of CRTH2 <50%, then the cells were restimulated using TransAct (or Dynabeads) and maintained on similar cycles of activation (2 days) and rest (5 days), until the expression of CRTH2 exceeded 50%. Typically, no more than 4 cycles are needed before the Th2 cells may be harvested and frozen.
(§2) For testing the ability of a compound or salt of the present disclosure to reduce the expression of IL-4 and IL-13 was tested in primary human Th2 cells, the abovementioned cells were thawed, then cultured for one day in IL-2 containing media. The Th2 cells were treated with compounds added at varying concentrations for three days, after which, the cells were washed, and stimulated with PMA/ionomycin for 6 hrs prior to readabout via intracellular flow cytometry.
(§3) The ability of a compound or salt of the present disclosure to reduce the expression of IL-4 and IL-13 was tested in primary human Th2 cells. Naive, primary human CD4+ T cells were isolated from healthy donors and differentiated into Th2 cells using a combination of IL-4 cytokine and anti-IFN-gamma antibody, based on a modified protocol from Scott et al (Activation of Th2 cells downregulates CRTh2 through an NFAT1 mediated mechanism. PLoS One. 2018 Jul. 3; 13(7):e0199156). Th2 cells were CRTH2+ and expressed IL-4 and IL-13 following PMA/ionomycin stimulation. Prior to PMA/ionomycin stimulation, Th2 cells were co-cultured with a compound or salt of the present disclosure for 3 days and then stimulated for 6 hours. Intracellular flow cytometry was performed to investigate the expression of IL-4 and IL-13 among stimulated CD4+ Th2 cells. The compound or salt was evaluated across a 2-log concentration range. Th2 cells were cultured in X-VIVO-15 media with human AB serum and supplemented with low dose IL-2 (30 IU/mL). The antibody panel that was used is listed below. All antibodies were obtained from Biolegend.
(§4) Description of Calculation for: (1) Expression of Cytokine following Stimulation (% X Positive among CD4+ T cells), and (2) % Normalized Reduction of Cytokine Expression From Baseline in CD4+ T Cells
(§5) The expression of IL-4 and IL-13 was measured based on positive gated fractions among CD4+ Th2 cells. The number is expressed as a positive percentage, determined based on the fluorescence-minus-one (FMO) control. The max percent is 100%. The normalized reduction value uses the vehicle control (water) to normalize against using the following percent change formula. (Cmpd: compound)

IL-4 = test: Functional Th2-blocking activity: IL-4 expression in primary human Th2 cells (intracellular flow cytometry); assay type: cell-based; details: for % Normalized Reduction of Cytokine Expression From Baseline in CD4+ T Cells IL-4: normalized against vehicle control (water), 3 days co-culture, PMA/ionomycin 6 hours; for % Normalized Reduction of Cytokine Expression From Baseline in CD4+ T Cells IL-4 / Expression of Cytokine following Stimulation (% X Positive among CD4+ T cells) IL-4: primary human CD4+ Th2 cells; for Expression of Cytokine following Stimulation (% X Positive among CD4+ T cells) IL-4: 3 days co-culture with compound, PMA/ionomycin stimulation 6 hours
Excerpt: as §1, §2, §3, §4, §5

SMILES	IL-4 signaling inhibition (IL-4 receptor signaling)	Expression of Cytokine following Stimulation (% X Positive among CD4+ T cells) IL-13 (IL-13)	% Normalized Reduction of Cytokine Expression From Baseline in CD4+ T Cells IL-13 (IL-13)	% Normalized Reduction of Cytokine Expression From Baseline in CD4+ T Cells IL-4 (IL-4)	Expression of Cytokine following Stimulation (% X Positive among CD4+ T cells) IL-4 (IL-4)	Th2 activity (IL-4)
Nc1c(C(=O)Nc2ccc(Cl)c(Cl)c2)c2ccccn2c1C(=O)c1cccc([N+](=O)[O-])c1 [Compound I-3, 2-amino-N-(3,4-dichlorophenyl)-3-(3-nitrobenzoyl)indolizine-1-carboxamide]	prominent IL-4 signaling inhibition	C (C represents 14% to less than 18%)	C (C represents 40% to less than 50%)	B (B represents 15% to less than 20%)	B (B represents 30% to less than 35%)	
O=C(Nc1cccc(Cn2nc3ccccn3c2=O)c1)c1c[nH]n2c1nc(=O)c1ccccc12 [II-2, 5-oxo-N-(3-((3-oxo-[1,2,4]triazolo[4,3-a]pyridin-2(3H)-yl)methyl)phenyl)-1,5-dihydropyrazolo[1,5-a]quinazoline-3-carboxamide]	exception	B (B represents 10% to less than 14%)	D (D represents 50% or greater)	B (B represents 15% to less than 20%)	B (B represents 30% to less than 35%)	suppressed Th2 activity
O=C(Nc1cccc(S(=O)(=O)NC2=NCCC2)c1)c1ccc(OCc2ccccc2)cc1 [III-1, 4-(benzyloxy)-N-{3-[(3,4-dihydro-2H-pyrrol-5-yl)sulfamoyl]phenyl}benzamide]	prominent IL-4 signaling inhibition	B (B represents 10% to less than 14%)	D (D represents 50% or greater)	D (D represents 25% or greater)	A (A represents 0% to less than 30%)	
